Experimental data as given in ChEMBL document CHEMBL2413070, “Histone Deacetylase 4 (HDAC4) Inhibitors: A Promising Treatment for Huntington's Disease” (ACS Med Chem Lett, 2013).

Experiments:
[1] = target: T1, Protein deacetylase HDAC6 (Homo sapiens, UniProt Q9UBN7); test: Inhibition of recombinant full length human HDAC-6 expressed in baculovirus expression system using acetyl-Gly-Ala-Lys(acetyl)-AMC as substrate after 2 hrs by fluorescence microplate reader analysis
T1 sequence (Q9UBN7 whole entry): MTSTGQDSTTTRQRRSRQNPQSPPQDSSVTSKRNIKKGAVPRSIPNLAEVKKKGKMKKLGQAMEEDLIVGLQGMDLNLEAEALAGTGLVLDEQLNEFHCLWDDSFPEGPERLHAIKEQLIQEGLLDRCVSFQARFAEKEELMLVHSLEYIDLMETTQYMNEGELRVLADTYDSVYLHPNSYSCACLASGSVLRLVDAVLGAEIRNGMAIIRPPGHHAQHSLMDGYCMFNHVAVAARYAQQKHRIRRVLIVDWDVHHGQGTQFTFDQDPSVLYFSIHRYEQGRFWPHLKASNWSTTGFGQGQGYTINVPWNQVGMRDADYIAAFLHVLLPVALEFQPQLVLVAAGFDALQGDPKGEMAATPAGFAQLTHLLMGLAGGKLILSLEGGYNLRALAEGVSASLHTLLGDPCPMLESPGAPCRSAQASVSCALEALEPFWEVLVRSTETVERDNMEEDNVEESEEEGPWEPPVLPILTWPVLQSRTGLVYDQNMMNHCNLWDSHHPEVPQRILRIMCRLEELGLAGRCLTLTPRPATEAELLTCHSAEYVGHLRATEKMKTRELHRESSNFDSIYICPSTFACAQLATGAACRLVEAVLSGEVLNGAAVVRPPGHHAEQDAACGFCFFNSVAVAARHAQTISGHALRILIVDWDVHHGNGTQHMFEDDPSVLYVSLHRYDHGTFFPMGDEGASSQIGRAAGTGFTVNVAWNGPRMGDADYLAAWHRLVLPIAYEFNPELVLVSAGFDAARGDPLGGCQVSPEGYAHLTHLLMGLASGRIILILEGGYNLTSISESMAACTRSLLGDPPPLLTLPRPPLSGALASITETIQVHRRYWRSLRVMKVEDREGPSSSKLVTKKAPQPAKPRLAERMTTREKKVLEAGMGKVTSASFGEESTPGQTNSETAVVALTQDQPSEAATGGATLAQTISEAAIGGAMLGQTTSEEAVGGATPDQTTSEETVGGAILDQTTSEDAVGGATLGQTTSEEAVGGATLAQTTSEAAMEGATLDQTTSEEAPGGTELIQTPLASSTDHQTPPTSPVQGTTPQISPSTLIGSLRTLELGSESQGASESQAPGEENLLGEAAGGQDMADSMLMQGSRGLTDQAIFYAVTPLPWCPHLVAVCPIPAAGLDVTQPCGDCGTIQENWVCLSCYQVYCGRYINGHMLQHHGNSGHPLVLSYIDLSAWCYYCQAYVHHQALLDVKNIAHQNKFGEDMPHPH

Histone deacetylase 1 = Histone deacetylase 1 (Homo sapiens, UniProt Q13547); test: Inhibition of recombinant full length human HDAC-1 expressed in baculovirus expression system using acetyl-Gly-Ala-Lys(acetyl)-AMC as substrate after 2 hrs by fluorescence microplate reader analysis
Histone deacetylase 1, sequence (Q13547 whole entry): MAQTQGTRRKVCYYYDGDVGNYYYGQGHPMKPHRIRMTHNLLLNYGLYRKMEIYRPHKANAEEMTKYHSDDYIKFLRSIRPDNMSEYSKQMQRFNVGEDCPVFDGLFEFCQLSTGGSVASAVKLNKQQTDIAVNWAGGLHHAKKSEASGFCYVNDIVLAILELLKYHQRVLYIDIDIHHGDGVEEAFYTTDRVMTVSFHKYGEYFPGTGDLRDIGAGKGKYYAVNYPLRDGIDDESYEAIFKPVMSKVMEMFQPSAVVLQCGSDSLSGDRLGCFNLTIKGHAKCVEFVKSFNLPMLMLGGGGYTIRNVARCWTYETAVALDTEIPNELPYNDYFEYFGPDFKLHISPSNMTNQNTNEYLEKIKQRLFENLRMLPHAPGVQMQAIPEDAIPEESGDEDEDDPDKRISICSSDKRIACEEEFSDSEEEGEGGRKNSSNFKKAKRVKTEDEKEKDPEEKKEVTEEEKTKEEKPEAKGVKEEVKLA

Row | IC50 [1] [µM] | IC50 (Histone deacetylase 1) [µM] | Structure (SMILES)
1 | > 10 | > 10 | CCN(CC)C[C@@H](C)NC(=O)c1ccc(-c2noc(C(F)(F)F)n2)nc1
2 | > 10 | > 10 | C[C@H](CN(C)Cc1ccccc1)NC(=O)c1ccc(-c2noc(C(F)(F)F)n2)nc1
